Test results published in patent US20090030055A1, “PKC activation as a means for enhancing s[sequence] secretion and improving cognition using bryostatin type compounds” (priority 2002, published 2009).
Entries after “also recorded” stand apart in the source; their conditions may differ. Like-named read-outs stand apart in the source and are kept apart here.

Experiments:
[1] = tested on: PKC; conditions: cited from earlier work
[2] = tested on: sAPPα secretion, AD cell line AG06848; test: sAPPα secretion immunoblot, AD fibroblasts; format: cell-based, human
Protocol: Cultured skin fibroblasts were obtained from the Coriell Cell Repositories and grown using the general guidelines established for their culture with slight modifications (Cristofalo & Carpentier, 1988; Hirashima et al., 1996). The culture medium in which cells were grown was Dulbecco's modified Eagle's medium (GIBCO) supplemented with 10% fetal calf serum (Biofluids, Inc.). Fibroblasts from control cell lines (AC), cases AG07141 and AG06241, and a familial AD (FAD) case (AG06848) were utilized.
Cells grown to confluence in 6 cm Petri dishes for 5-7 days. On the day of the experiment, medium was replaced with DMEM without serum and left undisturbed for 2 h. Upon completion of the 2 hour serum deprivation; treatment was achieved by direct application to the medium of Bryo, BL and DMSO at the appropriate concentrations. (0.1 and 0.01 nM for bryostatin; 0.1 nM, 0.1 μM, and 1 μM BL). DMSO was less than 1% in all cases. In most cases, medium was collected and processed after 3 hours of treatment for sAPP secretion. Other time points were also used to establish a time course of secretion.
sAPP—Determinations/Measurements of sAPPα
The concentration of secreted APP was measured using conventional immunoblotting techniques, with minor modifications the protocol. Precipitated protein extracts from each dish/treatment were loaded to freshly prepared 10% acrylamide Tris-HCl minigels and separated by SDPAGE. The volume of sample loaded was corrected for total cell protein per dish. Proteins were then electrophoretically transferred to PVDF membranes. Membranes were saturated with 5% non-fat dry milk to block non-specific binding. Blocked membranes were incubated overnight at 4° C. with the commercially available antibody 6E10 (1:500), which recognizes sAPP-alpha in the conditioned medium (SENETEK). After washing, the membranes were incubated at room temperature with horseradish peroxidase conjugated anti-mouse IgG secondary antibody (Jackson's Laboratories). The signal was then detected using enhanced chemiluminescence followed by exposure of Hyperfilm ECL (Amersham). The band intensities were quantified by densitometry using a BioRad GS-800 calibrated scanning densitometer and Multianalyst software (BioRad).

[3] = tested on: sAPP secretion, AD fibroblasts; conditions: benzolactam-treated cells; cited from earlier work
[4] = tested on: Transgenic mice carrying the V7171 mutation; test: Transgenic mice carrying the V7171 APP mutation, APP species in brain and health; format: in vivo; conditions: for deaths: 5-6 months old animals
Protocol: Transgenic mice carrying the V7171 mutation were treated with BL (1 mg/kg, i.p.; daily) from […] of age (after weaning) for 17 weeks (n=4). The control group (n=4) received vehicle alone (Tween 20 1%, DMSO 25%, 74% PBS). Another experimental group consisted of 5-6 months old animals treated for 7 weeks. Subgroups of these animals were treated with BL 1 mg/kg, daily (n=5); BL 10 mg/kg, daily (n=3; due to two deaths); BL 10 mg/kg, weekly (n=4; one death), LQ12 10 mg/kg, daily (n=5); and LQ12 10 mg/kg, weekly (n=5). Five additional animals received vehicle alone for the same period. After completion of the treatment, animals were euthanized according to K.U.L. (Belgium) guidelines. Brains were removed and prepared for biochemical analyses of APP species.
Immunoblot analysis. The biochemical analysis of intermediates of APP metabolism has been described elsewhere by Dewachter et al. (Aging increased amyloid peptide and caused amyloid plaques in brain of old APP/V7171 transgenic mice by a different mechanism than mutant presenilinl. J. Neurosci. 2000; 20:6452-8.). Briefly, brains were homogenized in 6.5 vol. of ice-cold buffer containing 20 mm Tris-HCl, pH 8.5, and a mixture of proteinase inhibitors (Roche, Darmstadt, Germany). After centrifugation at 135,000×g at 4° C. for 1 hr, the supernatant was centrifuged again for 2 hr at 200,000×g before analysis of soluble amyloid peptides by specified ELISA. The pellets from the first centrifugation were resuspended in TBS containing 2% Triton X-100, 2% Nonidet P40 and proteinase inhibitors and centrifuged at 100.000×g at 4° C. for 1 hr. This protein fraction was used for analysis of membrane-bound APP. Western blotting of membrane bound APP was performed on this protein fraction containing membrane-bound proteins, with monoclonal antibody 8E5. Total secreted APP and a-secretase cleaved secreted APP-a were detected by Western blotting analysis on the supernatant of the first centrifugation, with monoclonal antibody 8E5 and monoclonal antibody JRF14, respectively. Proteins were denatured and reduced in sample buffer containing a final concentration of 2% SDS, 1% 2-ME and separated on 8% TRIS Glycine gels (Novex, San Diego, Calif.). After incubation with appropriate secondary antibodies, all Western blots were developed with the ECL detection system and photographically recorded. Application of a series of diluted sample allowed quantitation. Densitometric scanning of films and normalization were performed using a flatbed optical density scanner and dedicated software for analysis and measurement (Image Master; Pharmacia, Uppsala, Sweden).
ELISA of amyloid peptides. Protein extracts were applied on reversed-phase columns (C18-Sep-pack cartridges; Waters Corporation, Milford, Mass.) and washed with increasing concentrations of acetonitrile (5, 25, and 50%) containing 0.1% trifluoroacetic acid. The last fraction contained the amyloid peptides and was dried in vacuo overnight and dissolved for measurements in ELISA. Sandwich ELISA for human […] peptides was performed using the capture antiserum JRF/cAβ40/10 and 21F12, respectively, and they were developed with monoclonal antibodies JRFcAβ/tot/14 hrpo and 3D6, respectively (Vanderstichele H, Van Kerschaver E, Hese C, Davidsson P, Buyse M A, Andreansen N, Minthon L, Wallin A, Blennow K, Vanmechelen E. Standardization of measurements of beta-amyloid (1-42) in cerebrospinal fluid and plasma. Amyloid 2000; 7: 245-258).
Standard general health assessment and open field were conducted in all animals prior to the biochemical assessments. In addition, a semi-quantitative ad hoc score was devised to measure abdominal contractions that followed the injections (+=weak, <2 min; […]).

[5] = tested on: sAPP secretion, control fibroblasts; conditions: cited from earlier work
[6] = biological target: T1, PKCε (Homo sapiens, UniProt Q02156); conditions: cited from earlier work
T1 sequence (Q02156 1-737): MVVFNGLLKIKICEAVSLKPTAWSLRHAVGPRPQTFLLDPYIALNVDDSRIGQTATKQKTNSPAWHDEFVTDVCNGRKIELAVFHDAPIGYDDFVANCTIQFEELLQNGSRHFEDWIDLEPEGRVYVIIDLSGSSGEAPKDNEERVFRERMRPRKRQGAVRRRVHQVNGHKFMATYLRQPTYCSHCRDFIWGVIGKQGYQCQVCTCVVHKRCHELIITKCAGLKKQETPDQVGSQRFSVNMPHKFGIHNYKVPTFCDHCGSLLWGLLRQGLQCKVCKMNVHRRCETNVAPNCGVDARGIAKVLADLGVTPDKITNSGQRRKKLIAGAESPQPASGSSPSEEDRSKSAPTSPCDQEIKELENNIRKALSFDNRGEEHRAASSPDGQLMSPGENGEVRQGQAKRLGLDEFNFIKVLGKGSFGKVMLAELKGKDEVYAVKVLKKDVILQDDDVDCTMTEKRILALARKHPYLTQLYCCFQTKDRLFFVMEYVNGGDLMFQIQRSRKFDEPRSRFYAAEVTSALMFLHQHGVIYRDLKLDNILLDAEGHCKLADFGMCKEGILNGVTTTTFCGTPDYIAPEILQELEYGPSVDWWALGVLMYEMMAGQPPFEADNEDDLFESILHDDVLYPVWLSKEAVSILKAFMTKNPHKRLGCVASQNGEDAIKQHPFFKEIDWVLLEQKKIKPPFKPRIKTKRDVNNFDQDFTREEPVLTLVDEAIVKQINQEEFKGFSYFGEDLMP

[7] = biological target: PKC; conditions: competes with [3H]phorbol dibutyrate; read-out: Ki for binding; cited from earlier work
[8] = tested on: squamous cell carcinoma and melanoma; conditions: used topically; cited from earlier work
[9] = tested on: NCI 60 cell line screen; conditions: cited from earlier work
[10] = biological target: protein kinase C; conditions: (−)-enantiomer; cited from earlier work
[11] = 1 mg/kg i.p. daily from 3 weeks of age for 17 weeks
[12] = 1 mg/kg i.p. daily from 3 weeks of age for 17 weeks, vs vehicle
[13] = 6 months old animals, 7 weeks, 10 mg/kg daily
[14] = 6 months old animals, 7 weeks, 10 mg/kg weekly
[15] = A-ring bryologs, read-out: affinity for PKC

## CCCCCCCC(=O)O[C@H]1/C(=C/C(=O)OC)C[C@H]2C[C@H](CO)OC(=O)C[C@H](O)CCOCC[C@@H]3CCO[C@H](/C=C/C(C)(C)[C@]1(O)O2)O3 [Analog 2]
[1]
  affinity for PKC, in words: high affinity
[1]; read-out: PKC Affin
  Ki: 6.5 nM

## CCCCCCCCC#Cc1ccc2c(c1)C[C@@H](CO)NC(=O)[C@H](C(C)C)N2C [BL, benzolactam]
[2]; AD cell line AG06848, 0.1 nM, three hours of treatment, relative to DMSO
  secretion of sAPPα: no real impact on secretion
[3]
  sAPP secretion in AD cells compared to control fibroblasts: slightly higher
[4]; [11]
  APP membrane-bound: no differences
  amount of Aβ42: no differences
  total secreted sAPP (sAPPα+sAPPβ): no differences
[4]; [12]
  Aβ40 in brain: concomitant and proportional reduction
  sAPPα in brain: significant increase
[4]; 1 mg/kg i.p. daily, 17 weeks
  general health: no differences in general health
[4]; 1 mg/kg i.p. daily, 17 weeks, vs vehicle group
  intensity of abdominal contractions after injection: somewhat elevated
[4]; 7 weeks, 10 mg/kg daily
  deaths: two deaths
[4]; 7 weeks, 10 mg/kg weekly
  deaths: one death
[4]; 6 months old animals, 7 weeks, 1 mg/kg daily
  sAPPα in brain: no effect
[4]; [13]
  Aβ40 in brain: increase
  sAPPα in brain: slight increase
[4]; [14]
  Aβ40 in brain: slight decrease
  sAPPα in brain: slight increase
[5]
  concentration giving significant increases of sAPP secretion: 10 µM

## CCCCCC1CC1CC1CC1CCCCCCCC(=O)O (stereo not shown) [DCP-LA, 2-[(2-pentylcyclopropyl)methyl]cyclopropaneoctanoic acid]
[6]
  concentration of maximal effect on PKCε: 100 nM

## CC1=C[C@]23C(=O)[C@@H](C=C(COC(=O)c4ccccc4)[C@@H](O)[C@]2(O)[C@H]1OC(=O)c1ccccc1)[C@H]1[C@@H](C[C@H]3C)C1(C)C [Ingenol 3,20-dibenzoate]
[7]
  Ki: 240 nM

## C/C=C(/C)C(=O)O[C@H]1C(C)=C[C@]23C(=O)[C@@H](C=C(CO)[C@@H](O)[C@]12O)[C@H]1[C@@H](C[C@H]3C)C1(C)C [Ingenol-3-angelate]
[8]
  antitumor activity: possesses antitumor activity

## CC1=CC[C@H](C)C(C)(C)[C@@H]1/C=C/C(C)=C/CC[C@@]1(CO)[C@H](CCCO)/C(=C(/C)C=O)CC[C@]1(C)O [Iripallidal]
[9]
  G150 (concentration required to inhibit growth by 50%): micromolar to nanomolar range

## CCCCCCCC(=O)OC1C(=CC(=O)OC)CC2CC(CO)OC(=O)CC(O)CCOC(C(C)(C)C)CC3CCOC(C=CC(C)(C)C1(O)O2)O3 (stereo not shown) [bryolog 3]
[1]; [15]
  Ki: 6.5 nM

## CCCCCCCC(=O)OC1C(=CC(=O)OC)CC2CC(CO)OC(=O)CC(O)CCOC(c3ccccc3)CC3CCOC(C=CC(C)(C)C1(O)O2)O3 (stereo not shown) [bryolog 4]
[1]; [15]
  Ki: 2.3 nM

## CCCCCCCC(=O)OC1C(=CC(=O)OC)CC2CC(CO)OC(=O)CC(O)CCOC(CCCc3ccc(Br)cc3)CC3CCOC(C=CC(C)(C)C1(O)O2)O3 (stereo not shown) [bryolog 5]
[1]; [15]
  Ki: 1.9 nM

## CCCCCCCCc1ccc2c3c(c[nH]c13)C[C@@H](CO)NC(=O)[C@H](C(C)C)N2C [octylindolactam V, Octylindolactam V]
[10]
  EC50: 29 nM

## CN[C@@H]1C[C@H]2O[C@@](C)([C@@H]1OC)n1c3ccccc3c3c4c(c5c6ccccc6n2c5c31)C(=O)NC4 [staurosporin]
[2]; 100 nM pre-treatment, bryostatin 0.1 nM
  effect of pre-treatment on bryostatin-induced sAPPα secretion: abolished the effects of 0.1 nM bryostatin; also recorded: completely abolished the effect
